Molecules are shown by their SMILES.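 96-well plates; 48 h exposure; 5 concentrations. Endpoints by linear interpolation between flanking doses. Not reached: highest tested concentration assigned. TGI marks complete inhibition of growth.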 Where only a bound is given, the exact number is not on record here.

Some test systems named below: SK-MEL-28 melanoma; SNB-19 CNS; HL-60(TB) leukemia; A549 NSCLC; 786-0 renal; SK-MEL-5 melanoma; K-562 leukemia; HCT-116 colon; ACHN renal; SK-OV-3 ovarian; OVCAR-8 ovarian; SF-295 CNS; SN12C renal; A498 renal; UACC-62 melanoma; NCI-H226 lung; MDA-MB-231 breast; NCI/ADR-RES ovarian; LOX IMVI melanoma; SK-MEL-2 melanoma.
What all share (assay): NCI anticancer screen, dose series, 48 h

Regarding `CC1C2CC(CC2(C)O)C1(C)C` (stereo not drawn), the TGI in the experiment on SK-MEL-28 melanoma, in the experiment on SNB-19 CNS, in the experiment with HL-60(TB) leukemia, in the experiment on A549 NSCLC, with 786-0 renal and with SK-MEL-5 melanoma was more than 100 µM throughout. Moreover, the TGI with K-562 leukemia, with HCT-116 colon, in the experiment with ACHN renal, in the experiment on SK-OV-3 ovarian, with OVCAR-8 ovarian and in the experiment with SF-295 CNS was more than 100 µM in each case. For the same compound, the TGI with SN12C renal, with A498 renal, in the experiment on UACC-62 melanoma, in the experiment with NCI-H226 lung and with MDA-MB-231 breast was more than 100 µM throughout.

Take `CC(C)CCNC(=O)C(CC(C)C)NC(=O)[C@H]1O[C@@H]1C(=O)O` (stereo partly drawn): the TGI with SK-MEL-28 melanoma, in the experiment on SNB-19 CNS, in the experiment on A549 NSCLC, in the experiment with NCI/ADR-RES ovarian, in the experiment with 786-0 renal and in the experiment with SK-MEL-5 melanoma was more than 100 µM each time. Also, the TGI in the experiment with K-562 leukemia, in the experiment on HCT-116 colon, with SK-OV-3 ovarian, in the experiment with OVCAR-8 ovarian, in the experiment with SF-295 CNS and with SN12C renal was more than 100 µM in each case. The TGI in the experiment on A498 renal, with UACC-62 melanoma, with NCI-H226 lung and in the experiment with MDA-MB-231 breast was more than 100 µM each time.

With `COc1cc2c(c(O)c1OC)C(=O)[C@@H]1CCC(=O)N1C2c1ccccc1` (stereo partly drawn), the TGI in the experiment with SK-MEL-28 melanoma, with SNB-19 CNS, with HL-60(TB) leukemia, in the experiment on LOX IMVI melanoma, with A549 NSCLC and in the experiment with NCI/ADR-RES ovarian was more than 100 µM in each case. In addition, the TGI with 786-0 renal, in the experiment on K-562 leukemia, in the experiment with SK-MEL-2 melanoma, with HCT-116 colon, in the experiment with ACHN renal and with SK-OV-3 ovarian was more than 100 µM throughout. Moreover, the TGI in the experiment with OVCAR-8 ovarian, with SF-295 CNS, in the experiment with SN12C renal, in the experiment with A498 renal, with UACC-62 melanoma and with NCI-H226 lung was more than 100 µM each time.

In the case of `O=[N+]([O-])c1ccc(N/N=C2/CC3=C2CCCCCCCCCC3)c([N+](=O)[O-])c1`, the TGI with SK-MEL-28 melanoma, with SNB-19 CNS, with A549 NSCLC, with NCI/ADR-RES ovarian, in the experiment with 786-0 renal and with SK-MEL-5 melanoma was more than 100 µM throughout. Moreover, the TGI with K-562 leukemia, in the experiment on SK-MEL-2 melanoma, in the experiment on HCT-116 colon, with ACHN renal, with SK-OV-3 ovarian and in the experiment on OVCAR-8 ovarian was more than 100 µM throughout. The TGI with SF-295 CNS, with SN12C renal, in the experiment with A498 renal, with UACC-62 melanoma, in the experiment with NCI-H226 lung and with MDA-MB-231 breast was more than 100 µM throughout.

Regarding `CCOC(=O)Cn1c2ccc(Br)cc2c2nc3ccccc3nc21`, the TGI in the experiment with SK-MEL-28 melanoma, in the experiment on SNB-19 CNS, with LOX IMVI melanoma, in the experiment with A549 NSCLC, with NCI/ADR-RES ovarian and with 786-0 renal was more than 100 µM in each case. In addition, the TGI in the experiment on SK-MEL-5 melanoma, in the experiment on K-562 leukemia, in the experiment on SK-MEL-2 melanoma, in the experiment on HCT-116 colon, with ACHN renal and with OVCAR-8 ovarian was more than 100 µM each time. Moreover, the TGI with SF-295 CNS, in the experiment on SN12C renal, with A498 renal, in the experiment with UACC-62 melanoma, with NCI-H226 lung and in the experiment with MDA-MB-231 breast was more than 100 µM in each case.

`CC(=O)O[C@H]1CC[C@H]2[C@@H]3CCC4=CC(=O)C=C[C@]4(O)[C@H]3CC[C@]12C`: the TGI with SK-MEL-28 melanoma is more than 100 µM; with SNB-19 CNS, more than 100 µM; with LOX IMVI melanoma, more than 54.4 µM; with A549 NSCLC, more than 87.9 µM; in the experiment on NCI/ADR-RES ovarian, 46.2 µM; with 786-0 renal, more than 100 µM. For the same compound, the TGI in the experiment with SK-MEL-5 melanoma is 23.4 µM; with K-562 leukemia, 27.5 µM; in the experiment on SK-MEL-2 melanoma, more than 73.4 µM; in the experiment on HCT-116 colon, more than 100 µM; with ACHN renal it was more than 100 µM; in the experiment on OVCAR-8 ovarian it was more than 86 µM. Moreover, the TGI in the experiment on SF-295 CNS is more than 100 µM; in the experiment on SN12C renal, more than 100 µM; in the experiment with A498 renal it was more than 100 µM; in the experiment on UACC-62 melanoma, more than 90.2 µM; with NCI-H226 lung it was more than 96.7 µM; with MDA-MB-231 breast, more than 100 µM.

With `C[Si](C)(C)c1ccc(-c2c3ccc(-c4cc(Br)cc(Br)c4)nc3nc3nc(-c4cc(Br)cc(Br)c4)ccc23)cc1`, the TGI in the experiment with SK-MEL-28 melanoma, in the experiment on SNB-19 CNS, with A549 NSCLC, with NCI/ADR-RES ovarian, in the experiment with 786-0 renal and in the experiment on SK-MEL-5 melanoma was more than 100 µM throughout. Further, the TGI in the experiment on SK-MEL-2 melanoma, with HCT-116 colon, in the experiment on ACHN renal, with SK-OV-3 ovarian, with SF-295 CNS and in the experiment on SN12C renal was more than 100 µM in each case. The TGI in the experiment on A498 renal, in the experiment on UACC-62 melanoma, with NCI-H226 lung and in the experiment on MDA-MB-231 breast was more than 100 µM throughout.

Consider `Cc1ccc(OCC2OC(n3cnc4nc(Nc5ccc(Cl)c(Cl)c5)nc(Cl)c43)CC2Oc2ccc(C)cc2)cc1` (stereo not drawn), for which the TGI with SK-MEL-28 melanoma, in the experiment on SNB-19 CNS, in the experiment on A549 NSCLC, in the experiment with NCI/ADR-RES ovarian, with 786-0 renal and in the experiment with SK-MEL-5 melanoma was more than 100 µM throughout. The TGI in the experiment on K-562 leukemia, in the experiment with SK-MEL-2 melanoma, in the experiment with HCT-116 colon, in the experiment on ACHN renal, in the experiment on SK-OV-3 ovarian and in the experiment with OVCAR-8 ovarian was more than 100 µM in each case. For the same compound, the TGI with SF-295 CNS, with SN12C renal, with UACC-62 melanoma, in the experiment with NCI-H226 lung and in the experiment on MDA-MB-231 breast was more than 100 µM throughout.

For the origin of these results see PubChem BioAssay (NCI).
